Results from patent US4579840A, “Method of blocking immune complex binding to immunoglobulin Fc receptors” (Immunetech Pharmaceuticals, priority 1983, dated 1986).
Ends that are not written are not given here. Peptide text beside a SMILES is read from it. * marks the point of attachment. Cbz = O=C(OCc1ccccc1)*

Experiments:
[1] = target: T1, MONOCYTE/MACROPHAGE Fc Receptor IgE (Homo sapiens, UniProt P06734); assay: Rosette inhibition assay, monocyte/macrophage IgE Fc receptor; format: binding; settings: human monocytes or U937; relative to intact monomeric myeloma IgE at equal concentration; NS = not significantly different from 0
T1 construct: the cells expressing surface Fc receptors formed rosettes; endogenous in cells; host or cells: fresh human monocytes or U937
T1 sequence (P06734 1-321): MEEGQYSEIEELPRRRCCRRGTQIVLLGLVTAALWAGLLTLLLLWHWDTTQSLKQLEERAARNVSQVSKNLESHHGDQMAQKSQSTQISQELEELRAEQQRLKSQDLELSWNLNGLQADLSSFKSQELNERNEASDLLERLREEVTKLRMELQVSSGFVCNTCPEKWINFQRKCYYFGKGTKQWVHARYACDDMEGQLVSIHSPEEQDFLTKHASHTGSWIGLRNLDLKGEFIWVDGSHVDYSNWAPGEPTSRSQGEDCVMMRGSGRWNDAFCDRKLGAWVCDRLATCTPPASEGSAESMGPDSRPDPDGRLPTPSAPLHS
Procedure: (§1) The Fc receptor blocking activity of the subject peptides was assessed using well established techniques and procedures. In particular, a rosette assay was employed which uses either monomeric, chemically or heat aggregated human IgG or IgE obtained from human myeloma sera. (Gonzalez-Molina, et al., J. Clin. Invest., 59, 616 (1977); Spiegelberg, et al. in Immunoassays: Clinical Laboratory Techniques for the 1980's (Alan R. Liss: New York, 1980), pp. 287-300). The IgG or IgE is then adsorbed to ox-erythrocytes which has been previously treated with trypsin and pyruvic aldehyde. Fresh human cell PMNs, monocytes and basophils from a patient with basophilic chronic myelogenous leukemia or human cell lines (RPMI-8866, and Daudi for lymphocyte Fc receptors and U937 for monocyte/macrophage Fc receptors) were then incubated in the presence or absence of inhibitors (monomeric IgG or IgE or peptides) at equal concentrations for fifteen minutes before addition of the indicator oxerythrocytes. In the absence of inhibitors, the cells expressing surface Fc receptors formed rosettes, clusters of three or more indicator erythrocytes that bound to the cells by virtue of exposed Fc regions on the erythrocyte surface. Addition of inhibitor myeloma proteins or inhibitor peptides produced a reproducable reduction of rosette formation, […], phosphate buffered isotonic saline, was used alone as control and then multiplying the calculated quotient by 100.
(§2) Table 1 presents the inhibition observed by representative peptide inhibitors calculated as a percentage of the inhibition observed with intact, monomeric myeloma proteins. Thus, 50 percent inhibition implys that the peptide was 50% as inhibitory as the intact myeloma protein to which it was compared.

[2] = target: T2, LYMPHOCYTE Fc Receptor IgE (Homo sapiens, UniProt P06734); assay: Rosette inhibition assay, lymphocyte IgE Fc receptor; format: binding; settings: RPMI-8866 and Daudi cell lines; relative to intact monomeric myeloma IgE at equal concentration; NS = not significantly different from 0
T2 construct: the cells expressing surface Fc receptors formed rosettes; endogenous in cells; host or cells: RPMI-8866 / Daudi
T2 sequence (P06734 1-321): T1 sequence (P06734 1-321)
Procedure: as §1, §2

BASOPHIL Fc Receptor IgE = target: T3, BASOPHIL Fc Receptor IgE (Homo sapiens, UniProt P12319); assay: Rosette inhibition assay, basophil IgE Fc receptor; format: binding; settings: basophils from a patient with basophilic chronic myelogenous leukemia; relative to monomeric myeloma IgE; NS = not significantly different from 0
T3 construct: the cells expressing surface Fc receptors formed rosettes; endogenous in cells; host or cells: basophils of a patient with basophilic chronic myelogenous leukemia
T3 sequence (P12319 26-257): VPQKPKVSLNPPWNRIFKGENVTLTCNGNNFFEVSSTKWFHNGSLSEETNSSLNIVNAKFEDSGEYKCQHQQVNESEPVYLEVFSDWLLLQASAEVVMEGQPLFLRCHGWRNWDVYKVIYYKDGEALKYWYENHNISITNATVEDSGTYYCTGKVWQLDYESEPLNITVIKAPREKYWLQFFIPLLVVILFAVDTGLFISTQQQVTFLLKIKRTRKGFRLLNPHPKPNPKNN
T3 sequence (Q01362 1-244 partner): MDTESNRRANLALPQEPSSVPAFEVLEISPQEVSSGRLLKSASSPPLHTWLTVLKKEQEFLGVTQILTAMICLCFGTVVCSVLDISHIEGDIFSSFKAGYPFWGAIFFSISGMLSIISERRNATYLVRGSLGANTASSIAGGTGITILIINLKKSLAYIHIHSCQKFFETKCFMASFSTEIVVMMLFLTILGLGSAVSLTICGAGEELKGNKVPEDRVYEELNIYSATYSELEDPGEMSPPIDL
T3 sequence (P30273 19-86 partner): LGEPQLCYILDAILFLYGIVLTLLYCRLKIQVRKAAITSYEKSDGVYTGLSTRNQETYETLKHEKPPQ
Procedure: as §1, §2

[3] = target: T4, LYMPHOCYTE Fc Receptor IgG (Homo sapiens, UniProt P31994); assay: Rosette inhibition assay, lymphocyte IgG Fc receptor; format: binding; settings: RPMI-8866 and Daudi cell lines; relative to intact monomeric myeloma IgG at equal concentration; NS = not significantly different from 0
T4 construct: the cells expressing surface Fc receptors formed rosettes; endogenous in cells; host or cells: RPMI-8866 / Daudi
T4 sequence (P31994 43-310): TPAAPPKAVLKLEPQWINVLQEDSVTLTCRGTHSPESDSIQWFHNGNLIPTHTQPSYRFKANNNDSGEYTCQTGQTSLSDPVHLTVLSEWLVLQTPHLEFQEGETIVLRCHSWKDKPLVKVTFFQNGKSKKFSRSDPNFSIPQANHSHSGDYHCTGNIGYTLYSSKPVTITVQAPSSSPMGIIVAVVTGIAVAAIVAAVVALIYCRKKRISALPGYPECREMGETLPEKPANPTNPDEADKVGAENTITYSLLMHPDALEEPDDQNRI
Procedure: as §1, §2

C1q Fc receptor = C1q Fc receptor (Homo sapiens, UniProt P02745+P02746+P02747); settings: peptides adsorbed to erythrocytes; Johnson and Thames 1975, Boackle et al. 1979; cited from earlier work
Chain of C1q Fc receptor (P02745 23-245): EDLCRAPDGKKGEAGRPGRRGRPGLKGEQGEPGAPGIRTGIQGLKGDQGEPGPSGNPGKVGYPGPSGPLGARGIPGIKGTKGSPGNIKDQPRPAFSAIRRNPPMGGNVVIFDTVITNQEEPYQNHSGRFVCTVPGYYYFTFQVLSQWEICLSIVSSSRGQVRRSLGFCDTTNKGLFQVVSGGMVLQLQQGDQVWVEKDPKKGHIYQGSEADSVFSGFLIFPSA
Chain of C1q Fc receptor (P02746 28-253): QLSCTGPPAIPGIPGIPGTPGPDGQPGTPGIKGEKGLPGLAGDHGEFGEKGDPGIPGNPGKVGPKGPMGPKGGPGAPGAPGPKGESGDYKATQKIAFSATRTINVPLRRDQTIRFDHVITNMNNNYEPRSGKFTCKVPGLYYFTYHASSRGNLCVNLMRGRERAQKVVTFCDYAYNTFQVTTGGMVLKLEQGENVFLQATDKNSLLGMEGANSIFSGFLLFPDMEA
Chain of C1q Fc receptor (P02747 29-245): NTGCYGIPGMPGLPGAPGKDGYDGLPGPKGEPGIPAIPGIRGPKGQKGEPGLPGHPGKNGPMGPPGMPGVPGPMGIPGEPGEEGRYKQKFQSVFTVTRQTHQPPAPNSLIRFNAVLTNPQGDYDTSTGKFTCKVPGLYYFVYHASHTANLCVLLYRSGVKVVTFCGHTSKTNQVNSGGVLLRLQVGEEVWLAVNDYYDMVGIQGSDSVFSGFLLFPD
Chain of C1q Fc receptor (P00736 18-705 partner): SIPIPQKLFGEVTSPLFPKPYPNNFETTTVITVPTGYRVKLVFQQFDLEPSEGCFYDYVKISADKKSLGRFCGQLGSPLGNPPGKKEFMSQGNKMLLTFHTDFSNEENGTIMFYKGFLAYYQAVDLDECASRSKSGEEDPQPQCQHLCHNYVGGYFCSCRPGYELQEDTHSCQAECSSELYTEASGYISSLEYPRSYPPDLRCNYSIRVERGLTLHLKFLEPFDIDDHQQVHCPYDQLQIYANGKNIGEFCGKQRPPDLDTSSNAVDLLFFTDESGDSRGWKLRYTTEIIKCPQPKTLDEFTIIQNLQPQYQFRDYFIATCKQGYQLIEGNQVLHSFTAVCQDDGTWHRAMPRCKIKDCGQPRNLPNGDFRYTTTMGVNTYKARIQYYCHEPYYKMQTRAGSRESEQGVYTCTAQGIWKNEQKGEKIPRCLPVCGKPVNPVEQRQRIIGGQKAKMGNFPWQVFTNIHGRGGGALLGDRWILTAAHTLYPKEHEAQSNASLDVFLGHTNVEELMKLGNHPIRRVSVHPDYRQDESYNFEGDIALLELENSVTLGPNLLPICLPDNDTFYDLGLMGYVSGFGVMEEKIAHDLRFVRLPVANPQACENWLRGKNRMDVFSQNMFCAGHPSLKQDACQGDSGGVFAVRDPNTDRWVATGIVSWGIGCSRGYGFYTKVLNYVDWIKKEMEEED
Chain of C1q Fc receptor (P09871 16-688 partner): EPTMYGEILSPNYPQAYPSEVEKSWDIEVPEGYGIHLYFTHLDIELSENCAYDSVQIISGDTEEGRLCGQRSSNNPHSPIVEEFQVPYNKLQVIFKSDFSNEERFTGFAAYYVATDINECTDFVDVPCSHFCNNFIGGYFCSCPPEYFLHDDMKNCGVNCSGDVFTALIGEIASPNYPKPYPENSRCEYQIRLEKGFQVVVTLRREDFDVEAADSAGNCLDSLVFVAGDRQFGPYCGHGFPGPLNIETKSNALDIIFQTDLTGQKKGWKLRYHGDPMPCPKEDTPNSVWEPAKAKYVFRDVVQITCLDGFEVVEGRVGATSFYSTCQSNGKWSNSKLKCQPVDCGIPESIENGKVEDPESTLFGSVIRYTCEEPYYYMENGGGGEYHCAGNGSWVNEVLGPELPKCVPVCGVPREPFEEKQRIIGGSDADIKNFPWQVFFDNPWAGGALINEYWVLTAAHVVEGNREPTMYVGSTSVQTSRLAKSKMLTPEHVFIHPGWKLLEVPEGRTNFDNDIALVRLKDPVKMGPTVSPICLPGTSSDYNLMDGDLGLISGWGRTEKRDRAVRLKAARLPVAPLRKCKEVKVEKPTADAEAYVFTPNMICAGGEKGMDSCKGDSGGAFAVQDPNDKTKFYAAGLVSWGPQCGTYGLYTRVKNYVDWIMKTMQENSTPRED

C1 = C1 (Homo sapiens, UniProt P02745+P02746+P02747); settings: Prystowsky et al. 1981, Lukas et al. 1981; cited from earlier work
Chain of C1 (P02745 23-245): as the sequence (P02745 23-245) above
Chain of C1 (P02746 28-253): as the sequence (P02746 28-253) above
Chain of C1 (P02747 29-245): as the sequence (P02747 29-245) above
Chain of C1 (P00736 18-705 partner): as the sequence (P00736 18-705 partner) above
Chain of C1 (P09871 16-688 partner): as the sequence (P09871 16-688 partner) above

Row | Rosette inhibition expressed as percent inhibition by monomeric IgE; monocyte/macrophage Fc receptor, IgE [1] [%] | Rosette inhibition expressed as percent inhibition by monomeric IgE; basophil Fc receptor, IgE (BASOPHIL Fc Receptor IgE) | Rosette inhibition expressed as percent inhibition by monomeric IgG; lymphocyte Fc receptor, IgG [3] [%] | Molecule | complement activating ability (C1q-mediated cell lysis) (C1q Fc receptor) | further results
1 | 95 | 100% | 34 | TVLHQNWLDGK |  | Rosette inhibition expressed as percent inhibition by monomeric IgE; lymphocyte Fc receptor, IgE [2]: 95%
2 | 103 | ~ 130% | 92 | PDARHSTTQPR [Pro--Asp--Ala--Arg--His--Ser--Thr--Thr--Gln--Pro--Arg] |  | Rosette inhibition expressed as percent inhibition by monomeric IgE; lymphocyte Fc receptor, IgE [2]: 100%
3 |  |  |  | YDYYVDG | less active | 
4 |  | 74% |  | DKSRAQQGN [Asp--Lys--Ser--Arg--Ala--Gln--Gln--Gly--Asn] |  | 
5 |  |  |  | FNWYVDGVQVHNAKTK |  | inhibition of C1-mediated hemolysis (C1): less active
6 | 55 | 89% | 94 | CC(=O)N[C@@H](CCC(N)=O)C(=O)N1CCC[C@H]1C(=O)N[C@@H](CCC(=O)O)C(=O)N[C@@H](CC(N)=O)C(=O)O [Ac--Gln--Pro--Glu--Asn, Ac-Gln-Pro-Glu-Asn] (Ac-QPEN-OH) |  | 
7 |  |  |  | TrpTyrValAspGly (WYVDG; printed: TrpTyrValAspGly) | less active | 
8 |  |  |  | Tyr-Glu-Ala-Gly (YEAG; printed: Tyr-Glu-Ala-Gly) | inactive | 
9 |  |  |  | KFEWYVEGVE | less active | 
10 | 87 | 101% | 95 | PDARHS [Pro--Asp--Ala--Arg--His--Ser, Pro-Asp-Ala-Arg-His-Ser] |  | Rosette inhibition expressed as percent inhibition by monomeric IgE; lymphocyte Fc receptor, IgE [2]: 98%
11 | 48 | 37% |  | DSNPR [Asp--Ser--Asn--Pro--Arg] |  | 
12 |  |  |  | VHEAKAKPGR | less active | 
13 |  |  |  | KFDAYVDG | less active | 
14 |  |  |  | KYDWYVDG | less active | 
15 |  |  |  | KADWYVDG | about as effective in activating C1q-mediated cell lysis as immune complexes formed by heat aggregated IgG | 
16 |  | 94% | 16 | NCCCC[C@H](NC(=O)[C@H](CO)NC(=O)[C@H](CCCCN)NC(=O)[C@@H](N)CC(=O)O)C(=O)O [Asp--Lys--Ser--Lys] (H-DKSK-OH) |  | 

Row | Rosette inhibition expressed as percent inhibition by monomeric IgE; monocyte/macrophage Fc receptor, IgE [1] [%] | Rosette inhibition expressed as percent inhibition by monomeric IgE; basophil Fc receptor, IgE (BASOPHIL Fc Receptor IgE) | Rosette inhibition expressed as percent inhibition by monomeric IgG; lymphocyte Fc receptor, IgG [3] [%] | Molecule | complement activating ability (C1q-mediated cell lysis) (C1q Fc receptor) | further results
17 | 38 | 89% | 86 | N=C(N)NCCC[C@H](NC(=O)[C@H](CO)NC(=O)[C@H](CCCCN)NC(=O)[C@@H](N)CC(=O)O)C(=O)O [Asp--Lys--Ser--Arg, Asp-Lys-Ser-Arg] (H-DKSR-OH) |  | Rosette inhibition expressed as percent inhibition by monomeric IgE; lymphocyte Fc receptor, IgE [2]: 23%
18 | 87 | 110% | 100 | RSTTKTSGPR |  | Rosette inhibition expressed as percent inhibition by monomeric IgE; lymphocyte Fc receptor, IgE [2]: 87%
19 |  |  |  | YVEWGERG | less active | 
20 |  |  |  | ZAsnTrpTyrVal (Cbz-NWYV) | less active | 
21 | 87 | 133% | 84 | TISKAKGQPR |  | Rosette inhibition expressed as percent inhibition by monomeric IgE; lymphocyte Fc receptor, IgE [2]: 106%
22 |  |  |  | GVQVHNAKTK |  | inhibition of C1-mediated hemolysis (C1): approximately as active as inhibitors as intact monomeric IgG
23 |  |  |  | TyrGluArgGly (YERG; printed: TyrGluArgGly) | less active | 
24 |  |  |  | KFDWAVDG | less active | 
25 |  | 106% |  | NCCCC[C@H](NC(=O)[C@H](CCC(N)=O)NC(=O)[C@@H](N)CCC(=O)O)C(=O)N[C@@H](CC(=O)O)C(=O)O [Glu--Gln--Lys--Asp] (H-EQKD-OH) |  | 
26 |  |  |  | Val-Gln-Val-His-Asn-Ala-Lys-Thr-Lys-Pro-Arg-OH (VQVHNAKTKPR-OH) |  | inhibition of C1-mediated hemolysis (C1): approximately as active as inhibitors as intact monomeric IgG
27 |  |  |  | Trp-Leu | inactive | 
28 |  |  |  | EWYERG | less active | 
29 |  |  |  | ZValGluTrpGly (Cbz-VEWG) | less active | 
30 | 58 | 80% | 36 | TTQPR [Thr--Thr--Gln--Pro--Arg] |  | 
31 | 33 | 89% | 29 | YSKLTVDKSR [reference compound] |  | 
32 | 20 | 41% | 49 | C[C@H](NC(=O)[C@H](CCCNC(=N)N)NC(=O)[C@@H](N)[C@@H](C)O)C(=O)N[C@@H](CCC(=O)O)C(=O)O [Thr--Arg--Ala--Glu, Thr-Arg-Ala-Glu] (H-TRAE-OH) |  | 

Row | Molecule | Rosette inhibition expressed as percent inhibition by monomeric IgE; monocyte/macrophage Fc receptor, IgE [1] [%] | Rosette inhibition expressed as percent inhibition by monomeric IgE; basophil Fc receptor, IgE (BASOPHIL Fc Receptor IgE) | Rosette inhibition expressed as percent inhibition by monomeric IgG; lymphocyte Fc receptor, IgG [3] [%] | complement activating ability (C1q-mediated cell lysis) (C1q Fc receptor) | further results
33 | SVMHEALHNHYTQK [Ser--Val--Met--His--Glu--Ala--Leu--His--Asn--His--Tyr--Thr--Gln--Lys] | 28 | 74% |  |  | 
34 | TRAEAEQKD [Thr--Arg--Ala--Glu--Ala--Glu--Gln--Lys--Asp] | 21 | 108% |  |  | 
